How the values were obtained:
[1] = tested on: DB and OCI-LY3 DLBCL derived cell-line; assay: phospho-RPA2 T21 foci immunofluorescence; assay type: cell-based, human; settings: 50 nM, 24H
Description: DB and OCI-LY3 DLBCL derived cell-line was treated with 50 nM Ironomycin during 24H. Immunofluoresence staining for foci of phospho-RPA2 T21, S phase (EdU integration) and DAPI was performed in DLBCL cells. (Magnification x63). Scale bar: 10 μm.
At least 300 cells were counted for each group. Statistical difference was tested using a Fisher's exact test. * P<0.05, ** P<0.01, *** P<0.001, **** P<0.0001. NS: non-significant.

CD34+ cells = assay: Hematopoietic progenitor colony forming units (CFU) assay; settings: 14 days
Description: Hematopoietic progenitor colony-forming units assay were performed with CD34+ cells from apheresis of 5 donors. […] CFU-C, CFU-E and CFU-GM were counted after 14 days culture (C).
Mobilized peripheral blood of donor were collected using an apheresis machine. Cells were CD34+ enriched by immuno-magnetic cell separation and fluorescence activated cell sorting (FACS).
About 250 viable CD34+ cells/mL were cultured in Methocult GF H84434 Medium (Stem Cell, #84434). Using a 3 mL syringe attached to a 16 gauge blunt end needle, 1 mL of the mixture was dispensed into 2 35 mm dishes.
Dishes were incubated at 37° C., in 5% C02, with >95% humidity for 14 days.

DB and OCI-LY3 cells = assay: DNA fiber assay (replication fork progression); assay type: cell-based, human
Description: DB and OCI-LY3 cells were labeled with IdU, treated with vehicle, gemcitabine (10 μM) or Ironomycin (100 μM) and labeled with CIdU (30 minutes each), and then harvested for DNA fiber assay (A and B).
DB cells were pretreated or not by deoxynucleotides for 30 minutes, labeled with IdU, treated with vehicle, gemcitabine (10 μM) or Ironomycin (100 μM) and labeled with CIdU (30 minutes each), and then harvested for DNA fiber assay (C and D).
Boxplot represent median±interquartile ranges and dots represent outliers of track length (expressed in μm). Results represent at least 200 track measurements. * P<0.05, **** P<0.0001, NS: non-significant, Mann-Whitney test.
Eukaryotic cells contain numerous iron-requiring proteins such as iron-sulfur (Fe—S) cluster proteins, hemoproteins and ribonucleotide reductases that play key roles in DNA replication and require iron as a cofactor (Zhang, 2014). The inventors next monitored the effect of ironomycin on fork progression in DLBCL cells using DNA fiber analysis. To this end, DLBCL cell lines were pulse labeled with 10 μM IdU and 100 μM CIdU and the length of CIdU tracks was measured to estimate the distance covered by individual forks during the pulse. […] Gemcitabine was used as a positive control. […]

[2] = tested on: DLBCL-derived cell lines (U2932, DB and OCI-LY3); assay: Concentration matrix test, synergy matrix (Bliss equation); assay type: cell-based, human; settings: DB cell line, 96 h, combined with Doxorubicin
Description: (§1) The DB DLBCL-derived cell lines were treated with increasing concentrations of Ironomycin combined with Doxorubicin for 96 h and cell viability was tested by ATP quantification to obtain the viability matrix. The synergy matrix was calculated as described in Material and Methods (A).
as §1, with “Three” for “The DB”, “Venetoclax” for “Doxorubicin”, “Methods. FIG. 8A: U2932 cell line; FIG. 8B: DB cell line; FIG. 8C: OCI-LY3 cell line.” for “Methods (A).”
Two DLBCL-derived cell lines were treated with increasing concentrations of Ironomycin combined with Ibrutinib for 96 h and cell viability was tested by ATP quantification to obtain the viability matrix. The synergy matrix was calculated as described in Material and Methods. […]
Two DLBCL-derived cell lines were treated with increasing concentrations of Ironomycin combined with Venetoclax for 96 h and cell viability was tested by ATP quantification to obtain the viability matrix. The synergy matrix was calculated as described in Material and Methods. […]
Three DLBCL-derived cell lines were treated with increasing concentrations of Ironomycin combined with Venetoclax for 96 h and cell viability was tested by ATP quantification to obtain the viability matrix. […]

DLBCL cells = assay: Ferroptosis, Bodipy-C11 staining and ferrostatin-1 rescue; assay type: cell-based, human
[3] = tested on: OCI-LY3 and DB cell lines
Excerpt: The inventors further investigated the effect of Iron supplementation on the cell death induced by these treatments. Iron chelators concentrations were chosen according the maximal plasmatic concentration achievable in the patient (Nisbet-Brown et al., 2003).
Chaetocin was used as positive control of ROS production inhibited by GSH (Isham et al., 2007).

For C#CCN[C@@H]1C=C[C@]2(O[C@H]([C@@H](CC)C(=O)[C@@H](C)[C@@H](O)[C@H](C)[C@@H]3O[C@@H]([C@@H](CC)C(=O)O)CC[C@@H]3C)[C@@H](C)C[C@H]2C)O[C@@]12CC[C@@](C)([C@H]1CC[C@](O)(CC)[C@H](C)O1)O2 [Ironomycin], the “phosphorylation of RPA2 on threonine 21 (replication stress)” value [1] was “increased phosphorylation of replication protein A sub-unit 2 (RPA2) on threonine 21”, the “toxicity on CFU-C, CFU-E and CFU-GM formation” value (CD34+ cells; 10 nM, N=5) was “no significant toxicity” and the “hematopoietic toxicity compared to conventional chemotherapy” value (CD34+ cells; 50 and 100 nM) was “significant lower hematopoietic toxicity”. For the same molecule, the “effect of deoxynucleotide supplementation on replication fork delay” value (DB and OCI-LY3 cells; DB cells pretreated by deoxynucleotides for 30 minutes) was “partially reversed”, the “length of CIdU tracks compared to control cells” value (DB and OCI-LY3 cells; P<0.0001) was “significantly shorter” and the “potentiation of doxorubicin toxicity (synergy matrix)” value [2] was “significantly potentialized the toxicity of doxorubicin”. For the same molecule, the “prevention of induced cell death by ferrostatin-1” value (DLBCL cells) was “partially prevented”, the “rescue of toxicity by combination of Oph-Q-VD and Fer-1” value (DLBCL cells) was “could not completely abrogate” and the “induction of ferroptosis (lipid peroxidation)” value (DLBCL cells; Bodipy-C11 staining) was “induces ferroptosis”. For the same molecule, the “caspase activation associated with apoptosis” value [3] was “activation of caspase-3 and −7”, the induction of apoptosis ([3]; Annexin V and PARP cleavage) was “induces apoptosis” and the “effect of iron supplementation on drug-induced apoptosis / cytotoxicity” value ([3]; Iron(III) chloride supplementation) was “did not affect”. The “inhibition of induced apoptosis by Oph-Q-VD pan-caspase inhibitor” value ([3]; P<0.001) was “partially inhibited”.

Source: patent US20230220480A1, “IRON-SCORE AND IN VITRO METHOD FOR IDENTIFYING HIGH RISK DLBCL SUBJECTS AND THERAPEUTIC USES AND METHODS” (CENTRE NATIONAL DE LA RECHERCHE SCIENTIFIQUE (CNRS), priority 2019, published 2023)
